The text below walks through data of ChEMBL document CHEMBL1201862, “PubChem BioAssay data set” (2004).

Calls of active or inactive are those of the source.

One experiment deals with T1, Exodeoxyribonuclease V (Escherichia coli (strain K12), UniProt P04993+P07648+P08394).
T1 sequence (P04993 whole entry): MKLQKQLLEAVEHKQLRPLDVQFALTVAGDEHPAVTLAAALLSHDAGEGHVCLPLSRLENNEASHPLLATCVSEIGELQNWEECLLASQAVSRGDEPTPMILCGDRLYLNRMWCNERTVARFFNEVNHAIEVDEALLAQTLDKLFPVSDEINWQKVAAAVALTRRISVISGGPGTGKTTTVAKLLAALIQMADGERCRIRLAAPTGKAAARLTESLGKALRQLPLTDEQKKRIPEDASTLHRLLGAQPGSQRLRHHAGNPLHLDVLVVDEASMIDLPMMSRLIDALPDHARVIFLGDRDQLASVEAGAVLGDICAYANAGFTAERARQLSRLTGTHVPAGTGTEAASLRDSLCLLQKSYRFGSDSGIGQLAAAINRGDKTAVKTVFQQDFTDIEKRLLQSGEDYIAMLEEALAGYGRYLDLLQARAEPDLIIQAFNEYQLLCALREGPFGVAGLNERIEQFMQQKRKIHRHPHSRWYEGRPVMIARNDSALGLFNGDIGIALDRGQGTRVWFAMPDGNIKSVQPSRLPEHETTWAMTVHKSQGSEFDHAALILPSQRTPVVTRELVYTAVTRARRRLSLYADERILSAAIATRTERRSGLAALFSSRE
T1 sequence (P07648 whole entry): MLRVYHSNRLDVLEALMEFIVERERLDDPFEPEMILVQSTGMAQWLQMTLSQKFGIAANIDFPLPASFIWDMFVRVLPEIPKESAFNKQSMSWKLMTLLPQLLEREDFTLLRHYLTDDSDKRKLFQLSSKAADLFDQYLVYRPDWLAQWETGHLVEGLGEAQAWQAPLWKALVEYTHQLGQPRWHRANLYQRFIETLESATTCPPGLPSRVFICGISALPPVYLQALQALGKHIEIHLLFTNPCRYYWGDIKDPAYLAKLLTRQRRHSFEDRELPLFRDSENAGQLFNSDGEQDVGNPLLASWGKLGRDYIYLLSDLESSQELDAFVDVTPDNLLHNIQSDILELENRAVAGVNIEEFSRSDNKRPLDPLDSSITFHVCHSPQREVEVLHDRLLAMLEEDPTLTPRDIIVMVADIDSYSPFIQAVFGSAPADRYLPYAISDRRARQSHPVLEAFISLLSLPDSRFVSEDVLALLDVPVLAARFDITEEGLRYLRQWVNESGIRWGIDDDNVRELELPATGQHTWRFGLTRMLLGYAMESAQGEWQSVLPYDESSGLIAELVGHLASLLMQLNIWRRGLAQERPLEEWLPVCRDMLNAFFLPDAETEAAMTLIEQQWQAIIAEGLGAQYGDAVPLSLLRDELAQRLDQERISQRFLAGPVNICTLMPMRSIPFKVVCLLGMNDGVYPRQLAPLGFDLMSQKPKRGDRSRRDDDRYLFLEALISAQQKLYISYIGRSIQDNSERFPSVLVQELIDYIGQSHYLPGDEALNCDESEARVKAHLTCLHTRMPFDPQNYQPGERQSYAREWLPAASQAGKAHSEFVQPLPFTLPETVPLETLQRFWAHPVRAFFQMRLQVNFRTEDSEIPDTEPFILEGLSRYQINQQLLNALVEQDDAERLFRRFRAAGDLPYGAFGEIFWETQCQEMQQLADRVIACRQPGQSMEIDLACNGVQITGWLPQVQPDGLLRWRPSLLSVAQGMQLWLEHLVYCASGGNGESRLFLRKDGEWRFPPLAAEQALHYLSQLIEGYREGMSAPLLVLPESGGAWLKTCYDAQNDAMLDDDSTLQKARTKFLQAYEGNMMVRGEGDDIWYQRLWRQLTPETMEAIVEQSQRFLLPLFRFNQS
T1 sequence (P08394 whole entry): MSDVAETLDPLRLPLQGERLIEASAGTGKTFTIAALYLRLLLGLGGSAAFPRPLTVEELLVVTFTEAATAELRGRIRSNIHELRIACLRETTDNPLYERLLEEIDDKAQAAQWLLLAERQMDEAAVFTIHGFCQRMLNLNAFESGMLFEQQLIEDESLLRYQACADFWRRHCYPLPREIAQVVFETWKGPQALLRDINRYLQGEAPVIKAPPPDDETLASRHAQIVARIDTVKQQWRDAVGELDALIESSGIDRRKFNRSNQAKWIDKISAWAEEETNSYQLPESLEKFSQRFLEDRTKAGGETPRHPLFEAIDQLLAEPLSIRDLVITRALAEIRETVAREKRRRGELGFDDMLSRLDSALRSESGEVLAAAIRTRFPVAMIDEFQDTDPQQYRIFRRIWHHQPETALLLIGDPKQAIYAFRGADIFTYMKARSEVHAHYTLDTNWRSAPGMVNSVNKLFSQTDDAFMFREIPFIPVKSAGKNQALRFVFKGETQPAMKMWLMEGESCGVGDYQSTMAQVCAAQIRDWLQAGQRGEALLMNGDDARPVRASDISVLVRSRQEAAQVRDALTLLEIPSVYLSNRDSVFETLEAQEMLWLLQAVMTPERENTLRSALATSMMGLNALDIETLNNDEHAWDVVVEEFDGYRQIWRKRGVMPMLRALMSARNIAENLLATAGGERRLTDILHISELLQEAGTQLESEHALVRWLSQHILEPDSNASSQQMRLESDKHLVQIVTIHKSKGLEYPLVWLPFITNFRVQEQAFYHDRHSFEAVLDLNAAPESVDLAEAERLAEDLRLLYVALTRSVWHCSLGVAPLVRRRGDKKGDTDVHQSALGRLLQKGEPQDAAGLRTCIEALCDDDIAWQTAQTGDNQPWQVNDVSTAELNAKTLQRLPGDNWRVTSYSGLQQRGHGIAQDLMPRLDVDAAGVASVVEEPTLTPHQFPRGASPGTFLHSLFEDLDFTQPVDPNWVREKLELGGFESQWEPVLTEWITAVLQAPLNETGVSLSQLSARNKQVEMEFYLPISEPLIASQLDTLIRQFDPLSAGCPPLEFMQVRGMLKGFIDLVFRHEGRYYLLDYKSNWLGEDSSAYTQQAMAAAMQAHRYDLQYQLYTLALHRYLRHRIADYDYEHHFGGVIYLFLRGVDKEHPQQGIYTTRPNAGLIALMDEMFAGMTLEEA
As to the kind of experiment: RecBCD inhibition via phage-restricted bacterial growth – absorbance, V66 E. coli, mutant T4 phage, counter-screen for AddAB inhibitor project, dose response (AID 492957). In kind it is functional, cell-based, Escherichia coli str. K-12 substr. MG1655.

Experiment [1] in a line: Counterscreen for AddAB inhibitors: absorbance-based bacterial cell-based high throughput dose response assay for inhibitors of bacterial viability. [Related pubchem assays (depositor defined):AID435030, AID449728, AID449731, AID488942, AID488955, AID488956]. In kind it is functional.
The test system of another experiment is INS1. As to the kind of experiment: INS-1E survival protection against cytokine death – cell-based, luminescence, retest, dose response (AID 449756).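 Also: cell death triggered by IL-1 beta plus TNF-alpha plus IFN-gamma mixture; protective hits raise ATP signal compared with cytokine alone wells.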 In kind it is functional. The following applies: Rattus norvegicus.
For a further experiment, the target named is Paired box protein Pax-8 (Homo sapiens, UniProt Q06710). Description: PAX8 transcriptional activity inhibition in RMG-I – RMG-I cells, luciferase, cherry-pick, dose response (AID 687027).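 Also: luciferase reporter driven by Pax8 target thyroperoxidase promoter measured by SteadyGlo luminescence.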 In kind it is functional, cell-based.
Paired box protein Pax-8, sequence (Q06710 whole entry): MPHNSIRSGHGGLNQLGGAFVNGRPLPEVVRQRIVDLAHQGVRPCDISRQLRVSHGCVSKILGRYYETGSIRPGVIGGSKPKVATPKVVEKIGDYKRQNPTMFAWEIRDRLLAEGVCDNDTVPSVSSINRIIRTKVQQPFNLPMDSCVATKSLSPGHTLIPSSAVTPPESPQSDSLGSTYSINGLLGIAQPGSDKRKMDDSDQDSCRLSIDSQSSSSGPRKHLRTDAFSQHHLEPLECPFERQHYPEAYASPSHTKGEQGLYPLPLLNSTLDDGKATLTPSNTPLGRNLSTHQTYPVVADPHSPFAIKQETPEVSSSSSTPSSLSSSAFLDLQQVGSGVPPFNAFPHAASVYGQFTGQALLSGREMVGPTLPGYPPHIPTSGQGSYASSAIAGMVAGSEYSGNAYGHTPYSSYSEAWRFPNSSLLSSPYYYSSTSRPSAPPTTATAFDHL

With `CCCCC(=O)NC(c1ccccc1)c1ccc2cccnc2c1O` (stereo not drawn), the IC50 (on Exodeoxyribonuclease V; in experiment [1]) was > 118 µM (inactive) each time. Moreover, the values for the AC50 with INS1 and at Paired box protein Pax-8 were 0.614 µM (active) and 3.24 µM (active), respectively.
`O=C(/C=C/c1cccs1)NC(=S)NNC(=O)c1ccccc1O`: the IC50 on Exodeoxyribonuclease V was 114 µM (inactive); in experiment [1], 109 µM (inactive). The AC50 at Paired box protein Pax-8 was 2.35 µM (active).
Regarding `CC(=O)N(Cc1ccc(F)cc1)C1=C(NCCc2ccccc2)C(=O)c2ccccc2C1=O`, in the experiment on INS1, the AC50 is 2.18 µM (active).
